The results in this text go back to PubChem BioAssay (NCI).

Some test systems named below: ACHN renal; COLO 205 colon; HCT-15 colon; IGROV1 ovarian; LOX IMVI melanoma; MALME-3M melanoma; MDA-MB-435; MOLT-4 leukemia; SF-295 CNS; SR leukemia.
Common to all, as to experiment: NCI-60 cell line screen, 48 h

Values joined by “and” are separate entries in the source; they are usually repeats but may differ in a detail not shown here. Equal entries are not always repeated.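 48-hour exposure; five concentrations; linearly interpolated endpoints. At the GI50, growth is halved. At the TGI there is no net growth.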 Bounds are passed on as bounds.

Regarding `CC(C)(C)c1nnc2n(c1=O)N=CC(c1ccc(Br)cc1)S2` (centres undefined), the GI50 with ACHN renal is 29.6 µM; in the experiment with COLO 205 colon, 39.2 µM; in the experiment on HCT-15 colon, 20.1 µM; in the experiment with IGROV1 ovarian it was 26.5 µM; in the experiment with LOX IMVI melanoma, 22.5 µM; with MALME-3M melanoma, 26.9 µM. Further, the GI50 with MDA-MB-435 was 27.9 µM; in the experiment on MOLT-4 leukemia, 31.5 µM; with SF-295 CNS, 12.1 µM; with SR leukemia, 24.2 µM. The TGI in the experiment on ACHN renal is 75.9 µM; in the experiment with COLO 205 colon it was greater than 100 µM; in the experiment with HCT-15 colon, 48 µM; with IGROV1 ovarian it was 92.8 µM; with LOX IMVI melanoma, 46.8 µM; in the experiment on MALME-3M melanoma, 79.7 µM. The TGI was 78.7 µM in the experiment with MDA-MB-435, greater than 100 µM in the experiment with MOLT-4 leukemia, 58.9 µM in the experiment on SF-295 CNS and 80.7 µM in the experiment with SR leukemia.

`O=[N+]([O-])c1ccc2c(c1)S(=O)c1ccccc1-2` (centres undefined): the TGI in the experiment on ACHN renal, in the experiment on COLO 205 colon, with HCT-15 colon, in the experiment with IGROV1 ovarian, with LOX IMVI melanoma and with MALME-3M melanoma was greater than 100 µM throughout. For the same molecule, the TGI with MDA-MB-435, with MOLT-4 leukemia, in the experiment on SF-295 CNS and with SR leukemia was greater than 100 µM in each case.

With `CN1CCN(c2cc(Nc3cc(C4CC4)[nH]n3)nc(Nc3ccc(CC(=O)NCc4cccc(F)c4)cc3)n2)CC1`, the GI50 in the experiment with ACHN renal was 2.01 µM; in the experiment with COLO 205 colon, 0.0713 µM; in the experiment on HCT-15 colon, 2.9 µM; with IGROV1 ovarian, 0.237 µM; in the experiment on LOX IMVI melanoma, 0.219 µM; in the experiment with MALME-3M melanoma, 0.496 µM. Also, the GI50 in the experiment with MDA-MB-435 was 0.44 µM; with MOLT-4 leukemia, 0.248 µM; with SF-295 CNS, 1.99 µM; in the experiment with SR leukemia, 0.293 µM. The TGI in the experiment with ACHN renal came to 10.6 µM; in the experiment with COLO 205 colon, 0.607 µM; in the experiment on HCT-15 colon, 14.5 µM; in the experiment on IGROV1 ovarian it was 2.97 µM; with LOX IMVI melanoma it was 1.48 µM; in the experiment on MALME-3M melanoma, 4.55 µM. The TGI in the experiment on MDA-MB-435 was 2.63 µM; in the experiment with MOLT-4 leukemia it was 19.8 µM; in the experiment on SF-295 CNS it was 10.3 µM; in the experiment with SR leukemia, greater than 20.4 µM.

As to `OC(C(=Nc1ccccc1)c1ccccc1)c1ccccc1` (centres undefined), the TGI in the experiment with ACHN renal is 31.5 µM; in the experiment with COLO 205 colon, 20.9 µM; in the experiment with HCT-15 colon, greater than 100 µM; with IGROV1 ovarian, 51.7 µM; in the experiment with LOX IMVI melanoma, 38.2 µM; in the experiment on MALME-3M melanoma it was 7.01 µM. In addition, the TGI in the experiment with MDA-MB-435 is 11.8 µM; with MOLT-4 leukemia, 55.1 µM; with SF-295 CNS it was 26.3 µM; in the experiment on SR leukemia, 10.7 µM.

In the case of `Cc1nc2ccc(NCCN(C)C)c3c(=O)c4cc(O)ccc4n1c23`, the TGI was 1.94 µM in the experiment with ACHN renal; 2.3 µM in the experiment with COLO 205 colon; 2.8 µM in the experiment on HCT-15 colon; 9.46 µM in the experiment with IGROV1 ovarian; 2.62 µM with LOX IMVI melanoma; 9.06 µM in the experiment on MALME-3M melanoma. Also, the TGI with MDA-MB-435 came to 13.7 µM; in the experiment on MOLT-4 leukemia it was 0.904 µM; in the experiment with SF-295 CNS, 5.87 µM; in the experiment on SR leukemia, 0.248 µM.

As for `CCC(C)CC(CC)NCCN1CCN(C(CC)CC(C)CC)C1=S` (centres undefined), the GI50 in the experiment with ACHN renal was 1.76 µM; in the experiment with COLO 205 colon, 1.6 µM; in the experiment with HCT-15 colon it was 1.79 µM; in the experiment with IGROV1 ovarian, 2.23 µM; in the experiment with LOX IMVI melanoma, 1.57 µM; in the experiment with MALME-3M melanoma, 1.74 µM. The GI50 in the experiment on MDA-MB-435 was 1.77 µM; in the experiment on MOLT-4 leukemia, 2.22 µM; with SF-295 CNS, 1.86 µM; with SR leukemia it was 1.87 µM. Besides, the TGI with ACHN renal is 3.14 µM; in the experiment with COLO 205 colon, 2.95 µM; with HCT-15 colon, 3.4 µM; in the experiment with IGROV1 ovarian, 4.53 µM; with LOX IMVI melanoma, 2.91 µM; with MALME-3M melanoma it was 3.19 µM. Further, the TGI was determined as 3.39 µM in the experiment on MDA-MB-435, 5.19 µM with MOLT-4 leukemia, 3.68 µM in the experiment on SF-295 CNS and 4.12 µM with SR leukemia.

In the case of `CC(C)c1ccc(O)c(=O)cc1`, the GI50 in the experiment on ACHN renal is 4.46 µM; in the experiment on COLO 205 colon it was 3.83 µM; with HCT-15 colon, 4.95 µM; with IGROV1 ovarian, 7.48 µM; with LOX IMVI melanoma, 3.54 µM; in the experiment on MALME-3M melanoma, 19.9 µM. Further, the GI50 with MDA-MB-435 was 19.6 µM; with MOLT-4 leukemia, 2.16 µM; with SF-295 CNS, 7.57 µM; in the experiment on SR leukemia it was 4.18 µM. For the same molecule, the TGI in the experiment on ACHN renal was greater than 68.5 µM; in the experiment on COLO 205 colon it was 30.1 µM; in the experiment with HCT-15 colon it was greater than 100 µM; in the experiment on IGROV1 ovarian, greater than 100 µM; in the experiment on LOX IMVI melanoma, 40.7 µM and 72.8 µM; in the experiment on MALME-3M melanoma, > 72 µM and 66.6 µM. Further, the TGI in the experiment on MOLT-4 leukemia was > 44.8 µM and 6.22 µM; in the experiment with SF-295 CNS, greater than 100 µM; with SR leukemia, greater than 100 µM.

As to `CN(C)CCCC(=O)Nc1ccc(Cn2nnc3c2C(=O)c2nnn(Cc4ccc(NC(=O)CCCN(C)C)cc4)c2C3=O)cc1`, the GI50 was 38.9 µM with ACHN renal; 1.79 µM in the experiment with COLO 205 colon; 56.8 µM with HCT-15 colon; 2.32 µM in the experiment with IGROV1 ovarian; 2.22 µM in the experiment with LOX IMVI melanoma; 1.39 µM with MALME-3M melanoma. Moreover, the GI50 was 1.82 µM in the experiment on MDA-MB-435, 1.96 µM with MOLT-4 leukemia, 14.4 µM in the experiment with SF-295 CNS and 3.36 µM with SR leukemia. The TGI was greater than 100 µM in the experiment with ACHN renal; 3.52 µM in the experiment on COLO 205 colon; greater than 100 µM in the experiment with HCT-15 colon; 5.74 µM in the experiment with IGROV1 ovarian; 5.62 µM in the experiment with LOX IMVI melanoma; 2.94 µM with MALME-3M melanoma. For the same molecule, the TGI in the experiment on MDA-MB-435 came out at 3.26 µM; in the experiment with MOLT-4 leukemia, 5.2 µM; with SF-295 CNS, 31.5 µM; in the experiment on SR leukemia, 61.4 µM.
